Here are results for seven sequences from paper PMC4038554, “Human CD4^+ T Cell Responses to the Dog Major Allergen Can f 1 and Its Human Homologue Tear Lipocalin Resemble Each Other” (PLoS ONE, 2014).

Assay in all cases: HLA class II peptide-binding assay (competitive ELISA)
Assay [1] concerns the target DRB1*0101 (Homo sapiens, UniProt P01903+P01911, A100R/D57E/F55L/F60I/F76Y/I96L/L162R/M171V/P40L/Q125E/R42F/V115G/Y59C). Conditions: immunopurified HLA, reference peptide IC50 3 nM, ratio ≤20 high affinity, 20–200 moderate affinity.
Assay [2] concerns the target DRB1*0301 (Homo sapiens, UniProt P01903+P01911, A100K/A102G/A103R/A169T/F55Y/I96L/K41T/L162R/M171V/P40S/Q125H/Q178H/Q39Y/R42S/S66N/T106N/T262R/W38E/Y61H). Conditions: immunopurified HLA, reference peptide IC50 423 nM, ratio ≤20 high affinity, 20–200 moderate affinity.
Assay [3] concerns the target DRB1*0401 (Homo sapiens, UniProt P01903+P01911, A100K/A169T/F76Y/I96L/K127E/L162R/M171V/N62H/P40V/Q125Y/R42H/S133A/S149N/S66Y/V115G/V209L/W38E). Conditions: immunopurified HLA, reference peptide IC50 8 nM, ratio ≤20 high affinity, 20–200 moderate affinity.
The target in assay [4] is DRB1*0701 (Homo sapiens, UniProt P01903+P01911, A100R/A102G/A103Q/D57E/D86V/E43K/F76Y/K127E/L162R/M171V/P40G/Q125H/Q99D/R33Q/R42Y/R54Q/S133A/S66F/T210M/V115G/Y107V/Y59L/Y89S). Conditions: immunopurified HLA, reference peptide IC50 5 nM, ratio ≤20 high affinity, 20–200 moderate affinity.
Assay [5] addresses DRB1*1101 (Homo sapiens, UniProt P01903+P01911, A100R/A169T/A87E/I96F/K41T/L162R/M171V/P40S/Q125H/Q178H/Q39Y/Q99D/R42S/S66Y/T262R/V115G/W38E). Conditions: immunopurified HLA, reference peptide IC50 50 nM, ratio ≤20 high affinity, 20–200 moderate affinity.
Assay [6] addresses DRB1*1301 (Homo sapiens, UniProt P01903+P01911, A100E/A169T/K41T/L162R/M171V/P40S/Q125H/Q178H/Q39Y/Q99D/R42S/S66N/T262R/W38E/Y61H). The note with it: immunopurified HLA, reference peptide IC50 208 nM, ratio ≤20 high affinity, 20–200 moderate affinity.
For assay [7], the target named is DRB1*1501 (Homo sapiens, UniProt P01903+P01911). The note with it: immunopurified HLA, reference peptide IC50 775 nM, ratio ≤20 high affinity, 20–200 moderate affinity.
Assay [8] has as its system DRB3. More on the design: species or system human. The note with it: DRB3; competitive ELISA, immunopurified HLA; reference peptide IC50 60 nM; ratio ≤20 high affinity, 20–200 moderate affinity.
In assay [9] the test system is DRB4. More on the design: species or system human. Conditions: DRB4; competitive ELISA, immunopurified HLA; reference peptide IC50 8 nM; ratio ≤20 high affinity, 20–200 moderate affinity.
For assay [10], the system named is DRB5. More on the design: species or system human. Conditions: DRB5; competitive ELISA, immunopurified HLA; reference peptide IC50 7 nM; ratio ≤20 high affinity, 20–200 moderate affinity.

With “HYILYCEGELHGRQIR [pC6, Can f 1 peptide p95–110]”, the “relative binding ratio (IC50 of the test peptide divided by IC50 of the reference peptide)” value in [1] is given as 48; in [2], 14; in assay [3] it was 91; in assay [4], 644; in assay [5], 78; in assay [6] it was 40. Also, the “relative binding ratio (IC50 of the test peptide divided by IC50 of the reference peptide)” value in assay [7] is given as 7; in assay [8], above 167; in [9], 62; in assay [10] it was 50.
For “KPDSVTPMILKAQKGGNL [pC2, Can f 1 peptide p31–48]”, the “relative binding ratio (IC50 of the test peptide divided by IC50 of the reference peptide)” value in assay [1] is on record as 141; in [2], 1; in [3] it was 72; in assay [4], > 1 874; in assay [5] it was 11; in [6], 26. Besides, the “relative binding ratio (IC50 of the test peptide divided by IC50 of the reference peptide)” value in assay [7] is listed as above 13; in [8] it was 1; in assay [9], > 1 179; in assay [10] it was 144.
Take “KPVRGVKLVGRDPKNNL [pTL7, Tear lipocalin peptide p108–124]”: the “relative binding ratio (IC50 of the test peptide divided by IC50 of the reference peptide)” value in assay [1] is reported as above 3844; in assay [2], 8; in [3], > 1 260; in assay [4] it was > 1 874; in assay [5], 105; in [6], 236. Moreover, the “relative binding ratio (IC50 of the test peptide divided by IC50 of the reference peptide)” value is above 13 in assay [7], above 167 in [8], > 1 179 in assay [9] and > 1 443 in [10].
Turning to “LEAKITMLTNGQCQNIT [pC3, Can f 1 peptide p48–64]”, the “relative binding ratio (IC50 of the test peptide divided by IC50 of the reference peptide)” value in [1] amounted to 4; in assay [2], 33; in [3], 50; in assay [4], 103; in assay [5], 89; in [6] it was 471. The “relative binding ratio (IC50 of the test peptide divided by IC50 of the reference peptide)” value in assay [7] is given as 2; in assay [8], above 167; in assay [9], > 1 179; in assay [10], 339.
As to “MNLESVTPMTLTTLEGGNL [pTL2, Tear lipocalin peptide p31–49]”, the “relative binding ratio (IC50 of the test peptide divided by IC50 of the reference peptide)” value in assay [1] is reported as 15; in assay [2] it was above 236; in assay [3] it was 436; in assay [4] it was 55; in assay [5], above 200; in assay [6] it was above 481. Moreover, the “relative binding ratio (IC50 of the test peptide divided by IC50 of the reference peptide)” value was above 13 in [7], above 167 in assay [8], > 1 179 in assay [9] and 645 in [10].
For “PGKYTADGGKHVAYII [pTL4, Tear lipocalin peptide p74–89]”, the “relative binding ratio (IC50 of the test peptide divided by IC50 of the reference peptide)” value was 17 in assay [1]; above 236 in [2]; 31 in assay [3]; 65 in assay [4]; 0.2 in [5]; above 481 in assay [6]. Moreover, the “relative binding ratio (IC50 of the test peptide divided by IC50 of the reference peptide)” value in assay [7] is above 13; in [8] it was 2; in [9], > 1 179; in [10], 433.
For “RQIRMAKLLGRDPEQSQ [pC7, Can f 1 peptide p107–123]”, the “relative binding ratio (IC50 of the test peptide divided by IC50 of the reference peptide)” value in assay [1] was 66; in assay [2], 4; in [3] it was 661; in assay [4], > 1 874; in assay [5], 92; in assay [6], 2. Further, the “relative binding ratio (IC50 of the test peptide divided by IC50 of the reference peptide)” value is recorded as above 13 in assay [7], above 167 in [8], 94 in assay [9] and 1 in [10].
